The values that follow come from patent US8524766B2, “Modulators of dopamine neurotransmission” (NSAB, Filial af Neurosearch Sweden AB, Sverige, priority 2008, dated 2013).

The ED50 is the midpoint of the dose-response relation.

For assay [1], the system named is DOPAC (3,4-dihydroxyphenylacetic acid) in the rat striatum. The experiment in a line: Increase of DOPAC in the rat striatum after systemic administration (in vivo neurochemistry). The following applies: sc; estimated ED50 on increase of DOPAC in rat striatum, systemic administration (s.c.), curve fitting. The text has this:
After the behavioural activity sessions, the rats are decapitated and their brains rapidly taken out and put on an ice-cold petri-dish. The limbic forebrain, the striatum, the frontal cortex and the remaining hemispheral parts of each rat are dissected and frozen. Each brain part is subsequently analyzed with respect to its content of monoamines and their metabolites.
The monoamine transmitter substances (NA (noradrenaline), DA (dopamine), 5-HT (serotonin)) as well as their amine (NM (normethanephrine), 3-MT (3-methoxytyramine)) and acid (DOPAC (3,4-dihydroxyphenylacetic acid), 5-HIAA (5-hydroxyindoleacetic acid), HVA (homovanillic acid)) metabolites are quantified in brain tissue homogenates by HPLC separations and electrochemical detection.
The analytical method is based on two chromatographic separations dedicated for amines or acids. Two chromatographic systems share a common auto injector with a 10-port valve and two sample loops for simultaneous injection on the two systems. Both systems are equipped with a reverse phase column (Luna C18(2), dp 3 μm, 50*2 mm i.d., Phenomenex) and electrochemical detection is accomplished at two potentials on glassy carbon electrodes (MF-1000, Bioanalytical Systems, Inc.). The column effluent is passed via a T-connection to the detection cell or to a waste outlet. This is accomplished by two solenoid valves, which block either the waste or detector outlet. By preventing the chromatographic front from reaching the detector, better detection conditions are achieved. The aqueous mobile phase (0.4 ml/min) for the acid system contains citric acid 14 mM, sodium citrate 10 mM, MeOH 15% (v/v) and EDTA 0.1 mM. Detection potentials relative to Ag/AgCl reference are 0.45 and 0.60V. The aqueous ion pairing mobile phase (0.5 ml/min) for the amine system contains citric acid 5 mM, sodium citrate 10 mM, MeOH 9% (v/v), MeCN 10.5% v/v), decane sulfonic acid 0.45 mM, and EDTA 0.1 mM. Detection potentials relative to Ag/AgCl reference are 0.45 and 0.65V.
ED50 values for the increase of DOPAC in striatum are calculated by curve fitting.

The test system of assay [2] is drug-naive rats. The experiment in a line: Locomotor activity in drug-naive rats (in vivo behaviour). More on the design: species or system rat. The following applies: recorded for 60 minutes, ± SEM. The text has this:
Photobeam sensors are spaced 2.5 cm apart.

On to `CS(=O)(=O)c1ccc2c(c1)O[C@@H](CN1CCCCC1)CO2` [Example 7, 1-{[(2S)-7-(METHYLSULFONYL)-2,3-DIHYDRO-1,4-BENZODIOXIN-2-YL]METHYL}PIPERIDINE], for which the ED50 in assay [1] was 12 µmol/kg. The Locomotor activity is listed as 7905 ± 656 counts/60 min in assay [2] (3.7 μmol/kg), 5469 ± 734 counts/60 min in assay [2] (11 μmol/kg) and 3334 ± 780 counts/60 min in assay [2] (33 μmol/kg).

Take `CCNC[C@H]1COc2c(F)cc(S(C)(=O)=O)cc2O1` [Example 19, N-{[(2S)-5-FLUORO-7-(METHYLSULFONYL)-2,3-DIHYDRO-1,4-BENZODIOXIN-2-YL]METHYL}ETHANAMINE]: the ED50 in assay [1] was less than 3.7 µmol/kg. For the same molecule, the Locomotor activity amounted to 6123 ± 710 counts/60 min in assay [2] (3.7 μmol/kg), 3191 ± 387 counts/60 min in assay [2] (11 μmol/kg) and 1936 ± 370 counts/60 min in assay [2] (33 μmol/kg).

Turning to `CCCNC[C@@H]1COc2ccc(S(C)(=O)=O)cc2O1` [Example 2, N-{[(2R)-7-(METHYLSULFONYL)-2,3-DIHYDRO-1,4-BENZODIOXIN-2-YL]METHYL}-PROPAN-1-AMINE], in assay [1], the ED50 is 47 µmol/kg. The Locomotor activity in assay [2] (3.7 μmol/kg) was determined as 10728 ± 1557 counts/60 min; in assay [2] (11 μmol/kg) it was 10346 ± 857 counts/60 min; in assay [2] (33 μmol/kg), 11427 ± 1559 counts/60 min.

On to `CCCNC[C@H]1COc2ccc(S(C)(=O)=O)cc2O1` [Example 3, N-{[(2S)-7-(METHYLSULFONYL)-2,3-DIHYDRO-1,4-BENZODIOXIN-2-YL]METHYL}-PROPAN-1-AMINE], for which the ED50 in assay [1] is 6.1 µmol/kg. For the same molecule, the values for the Locomotor activity in assay [2] (3.7 μmol/kg), in assay [2] (11 μmol/kg) and in assay [2] (33 μmol/kg) were 10297 ± 860 counts/60 min, 8973 ± 2186 counts/60 min and 6830 ± 128 counts/60 min, respectively.
